{"source": "patent US20060009401A1", "about": "“Method for treatment and prevention of herpes zoster by topical application” (aRigen, Inc., priority 2004, published 2006)", "key": {"[1]": {"target": "T1, dihydropyrimidine dehydrogenase (DPD) (Homo sapiens, UniProt Q12882)", "T1 sequence (Q12882 4-1025)": "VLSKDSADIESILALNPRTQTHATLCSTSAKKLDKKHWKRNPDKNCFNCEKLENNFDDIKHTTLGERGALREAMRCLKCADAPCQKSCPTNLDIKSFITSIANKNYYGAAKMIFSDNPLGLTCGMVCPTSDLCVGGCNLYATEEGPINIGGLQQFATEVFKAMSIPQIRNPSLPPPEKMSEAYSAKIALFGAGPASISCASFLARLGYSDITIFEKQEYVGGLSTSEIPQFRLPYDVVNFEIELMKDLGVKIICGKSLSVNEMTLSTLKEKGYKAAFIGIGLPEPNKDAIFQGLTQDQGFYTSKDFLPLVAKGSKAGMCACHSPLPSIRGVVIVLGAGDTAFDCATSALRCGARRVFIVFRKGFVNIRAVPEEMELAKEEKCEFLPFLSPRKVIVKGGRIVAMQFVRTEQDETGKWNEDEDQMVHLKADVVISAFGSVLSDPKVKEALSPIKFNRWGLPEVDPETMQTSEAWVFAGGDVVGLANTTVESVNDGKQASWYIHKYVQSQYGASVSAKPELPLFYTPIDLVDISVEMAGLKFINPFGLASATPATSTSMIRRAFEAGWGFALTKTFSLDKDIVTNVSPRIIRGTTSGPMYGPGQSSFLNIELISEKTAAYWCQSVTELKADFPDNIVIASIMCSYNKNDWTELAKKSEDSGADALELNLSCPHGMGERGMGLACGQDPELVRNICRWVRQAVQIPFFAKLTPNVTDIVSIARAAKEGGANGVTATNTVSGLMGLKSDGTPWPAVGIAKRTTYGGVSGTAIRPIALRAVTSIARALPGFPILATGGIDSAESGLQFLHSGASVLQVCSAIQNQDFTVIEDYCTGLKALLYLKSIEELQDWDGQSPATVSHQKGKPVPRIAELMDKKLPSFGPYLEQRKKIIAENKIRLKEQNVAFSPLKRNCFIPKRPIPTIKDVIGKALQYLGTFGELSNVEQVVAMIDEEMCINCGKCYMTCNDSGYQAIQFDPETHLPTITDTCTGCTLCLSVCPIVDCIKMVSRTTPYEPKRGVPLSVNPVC", "settings": "re-absorbed BVU, metabolite of oral sorivudine; cited from earlier work"}, "[2]": {"assay": "Study of interaction with 5-FU in rats", "assay_type": "in vivo, Female Wister rats", "settings": "for interaction with 5-FU: Groups 5 and 6, preparations for topical use combined with 5-FU; for Body weight (pre.) / Feed intake (pre.): before test", "description": "Interactions with 5-FU, a fluorouracil-based anticancer drug, were studies using sorivudine (BVAU) 3% cream and CVAU 3% cream. Female Wister rats were raised for one week, and hair from the blade bone to the waist was shaved under anesthesia. The preparations for topical use were applied two times a day for one week. The expression “p.o.” appearing in the table means oral administration.\nErythrocyte count and leukocyte count are values measured seven days after the start of administration."}, "HSV-1 [3]": {"tested_on": "HSV-1", "settings": "against HSV-1; cited from earlier work"}, "EBV": {"tested_on": "EBV", "settings": "against EBV; cited from earlier work"}, "VZV": {"tested_on": "VZV", "settings": "against VZV; cited from earlier work"}, "HSV-1 [4]": {"tested_on": "HSV-1", "settings": "application to the skin, mice; cited from earlier work"}, "[5]": {"settings": "cited from earlier work"}, "[6]": {"settings": "oral agent, administered at the same time; cited from earlier work"}, "[7]": {"settings": "BVAU 30 mg/kg p.o. + 5-FU 60 mg/kg p.o."}, "[8]": {"settings": "BVAU 30 mg/kg p.o. + 5-FU 60 mg/kg p.o., seven days after start"}, "[9]": {"settings": "single agent p.o. (BVAU 30 mg/kg; 5-FU 60 mg/kg)"}, "[10]": {"settings": "single agent p.o. (BVAU 30 mg/kg; 5-FU 60 mg/kg), seven days after start of administration"}}}
{"smiles": "O=c1[nH]cc(/C=C/Br)c(=O)[nH]1", "note": "[BVU, bromovinyluracil]", "values": [{"measurement": "inhibition of DPD", "setting": "[1]", "result": "inhibits"}]}
{"smiles": "O=c1[nH]c(=O)n([C@@H]2O[C@H](CO)[C@@H](O)[C@@H]2O)cc1/C=C/Cl", "note": "[CVAU, 1-β-D-arabinofuranosyl-5-[(E)-2-chrolovinyl]uracil]", "values": [{"measurement": "interaction with 5-FU", "setting": "[2]", "result": "no interaction observed"}]}
{"smiles": "O=c1[nH]c(=O)n([C@@H]2O[C@H](CO)[C@@H](O)[C@@H]2O)cc1/C=C/Br", "note": "[sorivudine, 1-β-D-arabinofuranosyl-5-[(E)-2-bromovinyl]uracil]", "values": [{"measurement": "Body weight (pre.)", "setting": "[2]; [7]", "result": 125}, {"measurement": "Feed intake (pre.)", "setting": "[2]; [7]", "result": 16}, {"measurement": "Body weight (7 d)", "setting": "[2]; [8]", "result": 88}, {"measurement": "Erythrocyte count", "setting": "[2]; [8]", "result": "892 10^4/mm^3"}, {"measurement": "Feed intake (7 d)", "setting": "[2]; [8]", "result": 3}, {"measurement": "leukocyte count", "setting": "[2]; [8]", "result": "5.8 10^2/mm^3"}, {"measurement": "side effect due to interaction with 5-FU", "setting": "[2]; Group 4, orally administered with 5-FU (positive control)", "result": "significant weight loss and myelo-suppression"}, {"measurement": "interaction with 5-FU", "setting": "[2]", "result": "no interaction observed"}, {"measurement": "Body weight (pre.)", "setting": "[2]; [9]", "result": 124}, {"measurement": "Feed intake (pre.)", "setting": "[2]; [9]", "result": 15}, {"measurement": "Body weight (7 d)", "setting": "[2]; [10]", "result": 143}, {"measurement": "Erythrocyte count", "setting": "[2]; [10]", "result": "653 10^4/mm^3"}, {"measurement": "Feed intake (7 d)", "setting": "[2]; [10]", "result": 16}, {"measurement": "leukocyte count", "setting": "[2]; [10]", "result": "45.6 10^2/mm^3"}, {"measurement": "antiviral activity", "setting": "HSV-1 [3]", "result": "extremely potent antiviral activity"}, {"measurement": "antiviral activity", "setting": "EBV", "result": "extremely potent antiviral activity"}, {"measurement": "antiviral activity", "setting": "VZV", "result": "extremely potent antiviral activity"}, {"measurement": "skin symptoms caused by inoculation with HSV-1", "setting": "HSV-1 [4]", "result": "suppresses the skin symptoms"}, {"measurement": "solubility", "setting": "[5]", "result": "slightly soluble"}, {"measurement": "adverse effect due to drug interaction with fluorouracil-based anticancer drugs", "setting": "[6]", "result": "died because of the adverse effect due to drug interaction"}]}
